In US5677420A, “Phospholipase c-inhibiting peptides” (Kyowa Hakko Kogyo Co., Ltd., priority 1995, dated 1997):
Values after ≈ are worked out from the molar mass of the structure shown. Square brackets hold non-standard residues; d marks the D form. Peptide text beside a SMILES is read from it. Aun = NCCCCCCCCCCC(=O)O

Tests used:
[1] = system: Klebsiella pneumoniae ATCC 10031; test: Antibacterial activity, agar dilution method; assay type: cell-based; conditions: medium pH 7.0
Method: (§1) The antibacterial activity was determined by the agar dilution method using a medium (pH 7.0) which comprises 3 g/l Bacto-tryptone (Difco Laboratories), 1 g/l meat extract, 1 g/l glucose and 16 g/l agar.

[2] = system: Pseudomonas aeruginosa Bin H No. 1; test: Antibacterial activity, agar dilution method; assay type: cell-based; conditions: medium pH 7.0
Method: as §1

[3] = system: Bacillus subtilis No. 10707; test: Antibacterial activity, agar dilution method; assay type: cell-based; conditions: medium pH 7.0
Method: as §1

PLC-γ1 = target: T1, PLC-γ1 (Bos taurus, UniProt P08487); test: PLC-inhibiting activity (release of inositol phosphate from [3H]PIP2); assay type: biochemical; conditions: Concentration 123 μM; PLC-γ1 from bovine thymus, 37° C., 10 minutes
T1 construct: A sample of PLC-γ1 was prepared from bovine thymus according to the method described in Y. Honma et al; from tissue; host or cells: bovine thymus
T1 sequence (P08487 1-1291): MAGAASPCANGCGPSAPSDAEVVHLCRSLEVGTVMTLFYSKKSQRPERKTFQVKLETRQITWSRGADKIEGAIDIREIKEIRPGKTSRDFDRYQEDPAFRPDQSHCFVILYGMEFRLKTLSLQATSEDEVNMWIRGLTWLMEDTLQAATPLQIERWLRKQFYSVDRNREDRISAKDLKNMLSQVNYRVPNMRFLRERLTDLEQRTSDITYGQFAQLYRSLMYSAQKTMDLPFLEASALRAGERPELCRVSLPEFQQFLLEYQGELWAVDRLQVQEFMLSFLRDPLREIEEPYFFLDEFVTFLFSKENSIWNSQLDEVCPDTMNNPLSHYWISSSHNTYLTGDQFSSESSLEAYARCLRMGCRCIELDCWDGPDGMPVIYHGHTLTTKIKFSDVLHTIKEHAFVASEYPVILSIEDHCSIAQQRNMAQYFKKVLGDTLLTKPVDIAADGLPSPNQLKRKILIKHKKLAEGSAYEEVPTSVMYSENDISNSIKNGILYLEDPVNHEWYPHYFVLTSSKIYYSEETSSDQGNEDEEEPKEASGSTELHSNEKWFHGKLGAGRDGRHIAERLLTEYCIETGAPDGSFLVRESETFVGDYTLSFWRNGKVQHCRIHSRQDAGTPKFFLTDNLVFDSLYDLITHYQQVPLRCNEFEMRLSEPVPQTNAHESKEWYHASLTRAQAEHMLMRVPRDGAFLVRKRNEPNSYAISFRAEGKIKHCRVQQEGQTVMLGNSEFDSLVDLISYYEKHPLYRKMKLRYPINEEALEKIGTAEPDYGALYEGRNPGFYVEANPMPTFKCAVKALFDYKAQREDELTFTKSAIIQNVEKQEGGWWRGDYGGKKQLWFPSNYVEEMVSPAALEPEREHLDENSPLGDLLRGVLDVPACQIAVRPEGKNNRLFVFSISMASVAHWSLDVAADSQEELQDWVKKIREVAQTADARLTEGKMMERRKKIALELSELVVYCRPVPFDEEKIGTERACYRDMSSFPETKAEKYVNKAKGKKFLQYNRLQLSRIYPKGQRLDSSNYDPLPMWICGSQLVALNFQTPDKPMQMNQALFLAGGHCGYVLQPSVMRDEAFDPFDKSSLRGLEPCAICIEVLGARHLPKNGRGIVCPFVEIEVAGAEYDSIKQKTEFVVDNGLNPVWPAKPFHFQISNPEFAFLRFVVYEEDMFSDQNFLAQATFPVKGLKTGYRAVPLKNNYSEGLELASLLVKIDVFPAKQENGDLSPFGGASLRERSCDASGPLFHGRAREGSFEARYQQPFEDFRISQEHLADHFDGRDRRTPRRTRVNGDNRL
Method: PLC-inhibiting activity A sample of PLC-γ1 was prepared from bovine thymus according to the method described in Y. Honma et al., Biochem. J., 269, 13 (1990). A solution having the composition shown in Table 2 below was prepared on ice and was heated to 37° C. to start reaction. After incubation for 10 minutes, 2 ml of a chloroform/methanol mixture (2:1, v/v) was added thereto to stop the reaction. The resulting inositol phosphate was extracted with 0.5 ml of 1N hydrochloric acid. The extract was separated into two liquid phases by centrifugation (2000×g, 3 minutes), and the amount of ^3 H contained in the supernatant (0.7 ml) was measured with a scintillation counter. […] (a) 2-(N-Morpholino)ethanesulfonic acid (b) The peptides and their concentrations in aqueous solutions provided for the test are shown in Table 3. […] The inhibition rate (X) was calculated according to the following equation: X (%)=(A-C)/(B-C)×100 where A is the obtained value of specific radioactivity, B is the value of specific radioactivity obtained when the same amount of water was added instead of the aqueous solution of the test peptide, and C is the value of specific radioactivity obtained when the same amount of water was added instead of the sample and the aqueous solution of the test peptide.

[4] = system: Proteus vulgaris ATCC 6897; test: Antibacterial activity, agar dilution method; assay type: cell-based; conditions: medium pH 7.0
Method: as §1

KMS-4 cells = test: Cell growth-inhibiting activity (BrdU incorporation, cell growth detection kit); assay type: cell-based; conditions: Concentration 1 μM, culturing with peptide for 17 hours
Method: Cell growth-inhibiting activity The cell growth-inhibiting activity was determined using a cell growth detection kit (Amersham) in the following manner. KMS-4 cells [M. Nanba et al, International Journal of Cancer, 32, 697 (1983)]were suspended in DMEM medium (Nissui Pharmaceutical Co., Ltd.) containing 10% fetal calf serum at a density of 1-2×10^4 cells/ml, and 1 ml of the cell suspension was put into each well of a 24-well plate (Corning Inc.). The cells were cultured in a CO2 incubator (37° C., 5% CO2) for 2 days. Then, the medium was replaced with a fresh DMEM medium containing 10% fetal calf serum, and the test peptide was added thereto, followed by culturing for 17 hours. […] The number of cells which incorporated BrdU and the total number of cells within one field of vision of a microscope (approximately 200 cells) were determined, and the proportion (%) of stained cells per field of vision was calculated. […] The cell growth-inhibiting activity was calculated in the following manner. That is, the cell growth inhibition rate was calculated according to the following equation: X (%)=(1-B/A)×100 where A is the growth activity when no peptide was added, and B is the growth activity when the test peptide was added.

Compound | MIC (μg/ml) KP [1] | MIC (μg/ml) PA [2] | MIC (μg/ml) BS [3] | Inhibition rate (%) (PLC-γ1) | MIC (μg/ml) PV [4] | Inhibition rate (%) (cell growth) (KMS-4 cells)
CSCC[C@H](NC(=O)[C@H](CCCCN)NC(=O)[C@H](CCCNC(=N)N)NC(=O)[C@H](Cc1ccc(O)cc1)NC(=O)[C@H](CC(C)C)NC(C)=O)C(=O)N[C@@H](CCCNC(=N)N)C(=O)N[C@@H](CC(C)C)C(=O)N[C@@H](CCCNC(=N)N)C(=O)N[C@@H](Cc1ccc(O)cc1)C(=O)N1CCC[C@H]1C(=O)N[C@H](C(=O)NCCCCCCCCCCC(N)=O)C(C)C [Compound (I-6), Ac-Leu-Tyr-Arg-Lys-Met-Arg-Leu-Arg-Tyr-Pro-Val-Aud-NH2] (Ac-LYRKMRLRYPV[Aun]-NH2) | 43 µg/mL (≈ 25 µM) |  |  |  |  | 
Ac-Leu-Tyr-Arg-Lys-Met-Arg-Leu-Arg-Tyr-Pro-Val-Abu-NH2 (Ac-LYRKMRLRYPVX-NH2; not fully specified (residue 12); printed as $CH_3CO$—Leu—Tyr—Arg—Lys—Met—Arg—Leu—Arg—Tyr—Pro—Val—NH—$(CH_2)_3CONH_2$) [Compound (I-1)] |  | 167 µg/mL | 167 µg/mL | 85% | 83 µg/mL | 10%
